Consider ten molecules from US5334596A, “Fibrinogen receptor antagonists” (Merck & Co., Inc., priority 1993, dated 1994).

For assay [1], the system named is gel-filtered human platelets. The assay is described as follows: ADP-stimulated platelet aggregation (gel-filtered human platelets, fibrinogen, Ca2+). The class given is cell-based. Particulars: gel-filtered human platelets 2×10^8 per ml, fibrinogen 100 ug/ml, Ca2+ 1 mM, 10 mM ADP, 37° C., read-out: IC50 (inhibition of platelet aggregation by 50% relative to a control lacking the compound). On the procedure: Platelet aggregation is measured at 37° C. in a Chronolog aggregometer. The reaction mixture contains gel-filtered human platelets (2×10^8 per ml), fibrinogen (100 micrograms per ml (ug/ml)), Ca^2+ (1 mM), and the compound to be tested. The aggregation is initiated by adding […] ADP 1 minute after the other components are added. The reaction is then allowed to proceed for at least 2 minutes. The extent of inhibition of aggregation is expressed as the percentage of the rate of aggregation observed in the absence of inhibitor. The IC50 is the dose of a particular compound inhibiting aggregation by 50% relative to a control lacking the compound.
In addition to the following preparative procedures, several examples of in-vitro bioactivity of compounds within the scope of the present invention are indicated. To illustrate, one test which is used to evaluate fibrinogen receptor antagonist activity is based on evaluation of inhibition of ADP-stimulated platelets. Aggregation requires that fibrinogen bind to and occupy the platelet fibrinogen receptor site. Inhibitors of fibrinogen binding inhibit aggregation. In the ADP-stimulated platelet aggregation assay used to determine inhibition associated with the compounds claimed in the instant invention, human platelets are isolated from fresh blood, collected into acid citrate/dextrose by differential centrifugation followed by gel filtration on Sepharose 2B in divalent ion-free Tyrode's buffer (pH 7.4) containing 2% bovine serum albumin.

In assay [2] the test system is cell attachment-promoting effects of fibronectin and vitronectin. Particulars: background section; cited from earlier work.
Assay [3] relates to gp IIb/IIIa complex. The following applies: literature, background section; cited from earlier work.

The term IC50 denotes the midpoint of a concentration-inhibition curve. For the molecule `O=C(NC[C@H](NS(=O)(=O)c1ccccc1)C(=O)O)c1cc2c(s1)CCN(CCC1CCNCC1)C2=O` [2-14, 2-[3-(2(S)-Phenylsulfonylamino)propionic acid]carboxamide-4-oxo-5-[2-(4-piperidinyl)ethyl]-4,5,6,7-tetrahydro[3,2-c]pyridine], in assay [1], the half-maximal inhibitory concentration (IC50) came out at 8 nM.

As to `O=C(O)CCNC(=O)c1cc2c(s1)CCN(CCC1CCNCC1)C2=O` [3-3, 2-[3-(Propionic acid)]carboxamide-4-oxo-5-[2-(piperidinyl)]ethyl-4,5,6,7-tetrahydrothieno[3,2-c]pyridine], in assay [1], the half-inhibitory concentration (IC50) worked out at 150 nM.

Regarding `O=C(O)CCCC(=O)c1cc2c(s1)CCN(CCC1CCNCC1)C2=O` [4-3], the IC50 in assay [1] was 260 nM.

For the molecule `C[C@H](CC(=O)O)NC(=O)c1cc2c(s1)CCN(CCC1CCNCC1)C2=O` [2-21, 2-[3-(3(R)-Methyl)propionic acid]carboxamide-4-oxo-5-[2-(4-piperidinyl)ethyl]-4,5,6,7-tetrahydrothieno[3,2-c]pyridine], the IC50 in assay [1] worked out at 220 nM.

`O=C(O)CCNC(=O)c1cc2c(s1)C(=O)N(CCC1CCNCC1)C2=O` [1-6, 5-(2-Carboxyethyl)carboxamide-[N-2-(4-Piperidinyl)ethyl]-2,3-thiophenedicarboximide]: the half-maximal inhibitory concentration (IC50) in assay [1] came out at 5000 nM.

For the molecule `CCCCS(=O)(=O)N[C@@H](CNC(=O)c1csc2c1C(=O)N(CCC1CCNCC1)CC2)C(=O)O` [2-11, 3-[3-(2(S)-n-Butylsulfonylamino)propionic acid]carboxamide-4-oxo-5-[2-(4-piperidinyl)ethyl]-4,5,6,7-tetrahydro[3,2-c]pyridine], the 50% inhibitory concentration (IC50) in assay [1] amounted to 33000 nM.

Regarding `CCCCS(=O)(=O)N[C@@H](CNC(=O)c1cc2c(s1)CCN(CCC1CCNCC1)C2=O)C(=O)O` [2-9, 2-[3-(2(S)-n-butylsulfonylamino)propionic acid]carboxamide-4-oxo-5-[2-(4-piperidinyl)ethyl]-4,5,6,7-tetrahydro[3,2-c]pyridine], in assay [1], the half-inhibitory concentration (IC50) worked out at 8 nM.

`O=C(NCc1ccccc1)N[C@@H](CNC(=O)c1cc2c(s1)CCN(CCC1CCNCC1)C2=O)C(=O)O` [2-17, 2-[3-(2(S)-benzylureido)propionic acid]carboxamide-4-oxo-5-[2-(4-piperidinyl)ethyl]-4,5,6,7-tetrahydro[3,2-c]pyridine]: the IC50 in assay [1] was determined as 25 nM.

Take “arginine-glycine-aspartic acid [Arg-Gly-Asp]”: the “activity of the tripeptide” value in assay [2] was “low activity”.

With Echistatin, the “affinity for the gp IIb/IIIa complex” value in assay [3] was “high affinity”.
